# Measured values taken from PubChem BioAssay (NCI).
#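 Where inhibition never reached the appropriate level, the endpoint shown equals the highest concentration tested. Otherwise, values were interpolated linearly from a five-concentration, 48-hour dose response in 96-well plates. The concentration for full growth arrest is given as TGI.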
# Legend:
# Assay in all cases: NCI anticancer screen, dose series, 48 h
# 786-0 renal = tested on: 786-0 renal
# A549 NSCLC = tested on: A549 NSCLC
# ACHN renal = tested on: ACHN renal
# BT-549 breast = tested on: BT-549 breast
# CAKI-1 renal = tested on: CAKI-1 renal
# CCRF-CEM leukemia = tested on: CCRF-CEM leukemia
# COLO 205 colon = tested on: COLO 205 colon
# DU-145 prostate = tested on: DU-145 prostate
# EKVX NSCLC = tested on: EKVX NSCLC
# HCC-2998 colon = tested on: HCC-2998 colon
# HCT-116 colon = tested on: HCT-116 colon
# HCT-15 colon = tested on: HCT-15 colon
# HL-60(TB) leukemia = tested on: HL-60(TB) leukemia
# HOP-62 NSCLC = tested on: HOP-62 NSCLC
# HOP-92 NSCLC = tested on: HOP-92 NSCLC
# HS 578T breast = tested on: HS 578T breast
# HT29 colon = tested on: HT29 colon
# IGROV1 ovarian = tested on: IGROV1 ovarian
# K-562 leukemia = tested on: K-562 leukemia
# KM12 colon = tested on: KM12 colon
# LOX IMVI melanoma = tested on: LOX IMVI melanoma
# M14 melanoma = tested on: M14 melanoma
# MALME-3M melanoma = tested on: MALME-3M melanoma
# MCF7 breast = tested on: MCF7 breast
# MDA-MB-231 breast = tested on: MDA-MB-231 breast
# MDA-MB-435 = tested on: MDA-MB-435
# MDA-N = tested on: MDA-N
# MOLT-4 leukemia = tested on: MOLT-4 leukemia
# NCI-H226 lung = tested on: NCI-H226 lung
# NCI-H23 lung = tested on: NCI-H23 lung
# NCI-H460 lung = tested on: NCI-H460 lung
# NCI-H522 lung = tested on: NCI-H522 lung
# NCI/ADR-RES ovarian = tested on: NCI/ADR-RES ovarian
# OVCAR-3 ovarian = tested on: OVCAR-3 ovarian
# OVCAR-4 ovarian = tested on: OVCAR-4 ovarian
# OVCAR-5 ovarian = tested on: OVCAR-5 ovarian
# OVCAR-8 ovarian = tested on: OVCAR-8 ovarian
# PC-3 prostate = tested on: PC-3 prostate
# RPMI-8226 leukemia = tested on: RPMI-8226 leukemia
# RXF 393 renal = tested on: RXF 393 renal
# SF-268 CNS = tested on: SF-268 CNS
# SF-295 CNS = tested on: SF-295 CNS
# SF-539 CNS = tested on: SF-539 CNS
# SK-MEL-2 melanoma = tested on: SK-MEL-2 melanoma
# SK-MEL-28 melanoma = tested on: SK-MEL-28 melanoma
# SK-MEL-5 melanoma = tested on: SK-MEL-5 melanoma
# SK-OV-3 ovarian = tested on: SK-OV-3 ovarian
# SN12C renal = tested on: SN12C renal
# SNB-19 CNS = tested on: SNB-19 CNS
# SNB-75 CNS = tested on: SNB-75 CNS
# SR leukemia = tested on: SR leukemia
# SW-620 colon = tested on: SW-620 colon
# T-47D breast = tested on: T-47D breast
# TK-10 renal = tested on: TK-10 renal
# U251 CNS = tested on: U251 CNS
# UACC-257 melanoma = tested on: UACC-257 melanoma
# UACC-62 melanoma = tested on: UACC-62 melanoma
# UO-31 renal = tested on: UO-31 renal
# A498 renal = tested on: A498 renal
structure (smiles),measurement,setting,value
O=C(O)CCCN=C(C1=C(O)C(=O)N(c2ccccc2)C1=O)c1ccccc1,TGI,786-0 renal,> 100 µM
same,TGI,A549 NSCLC,> 100 µM
same,TGI,ACHN renal,> 100 µM
same,TGI,BT-549 breast,> 100 µM
same,TGI,CAKI-1 renal,> 100 µM
same,TGI,CCRF-CEM leukemia,> 100 µM
same,TGI,COLO 205 colon,> 100 µM
same,TGI,DU-145 prostate,> 100 µM
same,TGI,EKVX NSCLC,> 100 µM
same,TGI,HCC-2998 colon,> 100 µM
same,TGI,HCT-116 colon,> 100 µM
same,TGI,HCT-15 colon,> 100 µM
same,TGI,HL-60(TB) leukemia,> 100 µM
same,TGI,HOP-62 NSCLC,> 100 µM
same,TGI,HOP-92 NSCLC,> 100 µM
same,TGI,HS 578T breast,> 100 µM
same,TGI,HT29 colon,> 100 µM
same,TGI,IGROV1 ovarian,> 100 µM
same,TGI,K-562 leukemia,> 100 µM
same,TGI,KM12 colon,> 100 µM
same,TGI,LOX IMVI melanoma,> 100 µM
same,TGI,M14 melanoma,> 100 µM
same,TGI,MALME-3M melanoma,> 100 µM
same,TGI,MCF7 breast,> 100 µM
same,TGI,MDA-MB-231 breast,> 100 µM
same,TGI,MDA-MB-435,> 100 µM
same,TGI,MDA-N,> 100 µM
same,TGI,MOLT-4 leukemia,> 100 µM
same,TGI,NCI-H226 lung,> 100 µM
same,TGI,NCI-H23 lung,> 100 µM
same,TGI,NCI-H460 lung,> 100 µM
same,TGI,NCI-H522 lung,> 100 µM
same,TGI,NCI/ADR-RES ovarian,> 100 µM
same,TGI,OVCAR-3 ovarian,> 100 µM
same,TGI,OVCAR-4 ovarian,> 100 µM
same,TGI,OVCAR-5 ovarian,> 100 µM
same,TGI,OVCAR-8 ovarian,> 100 µM
same,TGI,PC-3 prostate,> 100 µM
same,TGI,RPMI-8226 leukemia,> 100 µM
same,TGI,RXF 393 renal,> 100 µM
same,TGI,SF-268 CNS,> 100 µM
same,TGI,SF-295 CNS,> 100 µM
same,TGI,SF-539 CNS,> 100 µM
same,TGI,SK-MEL-2 melanoma,> 100 µM
same,TGI,SK-MEL-28 melanoma,> 100 µM
same,TGI,SK-MEL-5 melanoma,> 100 µM
same,TGI,SK-OV-3 ovarian,> 100 µM
same,TGI,SN12C renal,> 100 µM
same,TGI,SNB-19 CNS,> 100 µM
same,TGI,SNB-75 CNS,> 100 µM
same,TGI,SR leukemia,64.9 µM
same,TGI,SW-620 colon,> 100 µM
same,TGI,T-47D breast,> 100 µM
same,TGI,TK-10 renal,> 100 µM
same,TGI,U251 CNS,> 100 µM
same,TGI,UACC-257 melanoma,> 100 µM
same,TGI,UACC-62 melanoma,> 100 µM
same,TGI,UO-31 renal,> 100 µM
COC(=O)c1ccc2c(c1)sc1nc(-c3ccc(OC)cc3)cn12,TGI,786-0 renal,> 100 µM
same,TGI,A498 renal,> 100 µM
same,TGI,A549 NSCLC,> 100 µM
same,TGI,ACHN renal,> 100 µM
same,TGI,BT-549 breast,> 100 µM
same,TGI,CAKI-1 renal,> 100 µM
same,TGI,CCRF-CEM leukemia,> 100 µM
same,TGI,COLO 205 colon,> 100 µM
same,TGI,DU-145 prostate,> 100 µM
same,TGI,EKVX NSCLC,> 100 µM
same,TGI,HCC-2998 colon,> 100 µM
same,TGI,HCT-116 colon,> 100 µM
same,TGI,HCT-15 colon,> 100 µM
same,TGI,HL-60(TB) leukemia,> 100 µM
same,TGI,HOP-62 NSCLC,> 100 µM
same,TGI,HOP-92 NSCLC,> 100 µM
same,TGI,HS 578T breast,> 100 µM
same,TGI,HT29 colon,> 100 µM
same,TGI,IGROV1 ovarian,> 100 µM
same,TGI,K-562 leukemia,> 100 µM
same,TGI,KM12 colon,> 100 µM
same,TGI,LOX IMVI melanoma,> 100 µM
same,TGI,M14 melanoma,> 100 µM
same,TGI,MALME-3M melanoma,> 100 µM
same,TGI,MCF7 breast,> 100 µM
same,TGI,MDA-MB-231 breast,> 100 µM
same,TGI,MDA-MB-435,> 100 µM
same,TGI,MDA-N,> 100 µM
same,TGI,MOLT-4 leukemia,> 100 µM
same,TGI,NCI-H226 lung,> 100 µM
same,TGI,NCI-H23 lung,> 100 µM
same,TGI,NCI-H460 lung,> 100 µM
same,TGI,NCI-H522 lung,> 100 µM
same,TGI,NCI/ADR-RES ovarian,> 100 µM
same,TGI,OVCAR-3 ovarian,> 100 µM
same,TGI,OVCAR-4 ovarian,> 100 µM
same,TGI,OVCAR-5 ovarian,> 100 µM
same,TGI,OVCAR-8 ovarian,> 100 µM
same,TGI,PC-3 prostate,> 100 µM
same,TGI,RPMI-8226 leukemia,> 100 µM
same,TGI,RXF 393 renal,> 100 µM
same,TGI,SF-268 CNS,> 100 µM
same,TGI,SF-295 CNS,> 100 µM
same,TGI,SF-539 CNS,> 100 µM
same,TGI,SK-MEL-2 melanoma,> 100 µM
same,TGI,SK-MEL-28 melanoma,> 100 µM
same,TGI,SK-MEL-5 melanoma,53.6 µM
same,TGI,SK-OV-3 ovarian,> 100 µM
same,TGI,SN12C renal,> 100 µM
same,TGI,SNB-19 CNS,> 100 µM
same,TGI,SNB-75 CNS,> 100 µM
same,TGI,SW-620 colon,> 100 µM
same,TGI,T-47D breast,> 100 µM
same,TGI,TK-10 renal,> 100 µM
same,TGI,U251 CNS,> 100 µM
same,TGI,UACC-257 melanoma,> 100 µM
same,TGI,UACC-62 melanoma,> 100 µM
same,TGI,UO-31 renal,> 100 µM
